Experimental data published in patent US10758620B2, “Potentiated antimicrobial agents” (SEPTEOS, priority 2014, dated 2020).
Like-named read-outs stand apart in the source and are kept apart here.

Legend:
[1] = test system: bacterial strains (Pyo, Coli, Staph); assay: MIC measurement in agar medium, tested bacterial strains overall; assay type: cell-based; settings: compound alone, depending on the strains
Text: (§1) Inhibitory minimum concentration measurement tests are made in a solid agar medium according to international standards in force (CLSI M7-A9 Jan 12 standards): dispersion of the compounds to be tested in a Mueller Hinton gelose. An adaptation relating to the hydrophobicity of compounds and compositions is however necessary to disperse them in the medium: dilution of the compounds in a solvent. The compounds and compositions incorporated in the agar medium can be diluted beforehand in one or more solvents (Tween® 80 diluted with water, Tween® 80 diluted with […], DMSO diluted with water). The strains are deposited onto the agar surface with a steers apparatus. In the examples, different dissolution methods for products are tested in parallel to circumvent the problems of water/solvent distribution coefficient of the molecules (antimicrobial and potentiator) whereas the bacteria grow only in the aqueous phase. The technical requirement will not intervene in in vivo tests. The same dilution methods can be implemented in a liquid medium (microplates and tubes). The same methodology is implemented with fungi. MIC measurement: the minimum inhibitory concentration measurement tests are made in an agar solid medium according to international standards in force (CLSI standards), according to the previously defined protocol. […] [table]

[2] = test system: Strain 10168, methicillin resistant S. aureus (MRSA); assay: Resistance test (resistant mutants), Strain 10168; assay type: cell-based; settings: MRSA, text after Table 16
Protocol: After 48 h incubation, the presence or absence of colonies likely to be resistant mutants is observed.
ED control or DMSO=only distilled water or DMSO is added
Ciprofloxacine DMSO: addition of Ciprofloxacine in DMSO

[3] = test system: MSSA 8237; assay: Etest, staphylococci MSSA 8237; assay type: cell-based; settings: for MIC: Staphylococcus aureus, MSSA
Text: (§2) The corresponding tests are made based on the usual MIC test: the Etest® (Biomerieux) strip is deposited onto the surface of a seeded agar medium in which the booster has been incorporated. This test enables solvent effect risks, that is a possible interaction with the solvent used in vitro, to be minimised.
(§3) The control corresponds to the test made without cineol. A control is made in each solvent tested: distilled water, Tween/water and DMSO.
(§4) ED control=antibiotic alone in distilled water
(§5) DMSO control=antibiotic alone in DMSO
(§6) TE control=antibiotic alone in Tween® 80

[4] = test system: Pseudomonas Strain 08132; assay: Etest, Pseudomonas Strain 08132; assay type: cell-based
Text: as §2, §3, §4, §5, §6

[5] = test system: Escherichia coli; assay: MIC measurement in agar medium (dilution test), Coli; assay type: cell-based; settings: potentiator alone
Text: as §1, with “fungi. […]” for “fungi.”, “The booster contribution as compared with the MIC of the antibiotic alone is expressed in a (MIC ATB)/(MIC ATB+booster) ratio. Thereby, gains are defined: […]” for “[table]”

[6] = test system: candidas; assay: MIC measurement (dilution test) on yeast strains; assay type: cell-based, Candida; design: key to MIC 90 gain / MIC 50 gain: gain = MIC of antifungal alone / MIC of antifungal + booster; settings: Sertaconazole with booster, solvent DMSO
Text: as §1, with “fungi. […]” for “fungi.”, “The booster contribution as compared with the MIC of the antibiotic alone is expressed in a (MIC ATB)/(MIC ATB+booster) ratio. Thereby, gains are defined: […] The yeast strains tested (n=33) belong to the […] albicans, Candida tropicalis, Candida krusei, Candida parapsilosis, Candida glabrata species.” for “[table]”

[7] = MSSA 8237, booster 1 mg/L in agar, DMSO
[8] = MSSA 8237, booster 1 mg/L in agar, Tween/water
[9] = MSSA 8237, booster 4 mg/L in agar, DMSO
[10] = MSSA 8237, booster 4 mg/L in agar, Tween/water
[11] = MSSA 8237, booster 16 mg/L in agar, DMSO
[12] = MSSA 8237, booster 16 mg/L in agar, Tween/water
[13] = MSSA 8237, booster 1 mg/L in agar, DMSO, read-out: MIC of Clindamycine
[14] = MSSA 8237, booster 1 mg/L in agar, Tween/water, read-out: MIC of Clindamycine
[15] = MSSA 8237, booster 4 mg/L in agar, DMSO, read-out: MIC of Clindamycine
[16] = MSSA 8237, booster 4 mg/L in agar, Tween/water, read-out: MIC of Clindamycine
[17] = MSSA 8237, booster 16 mg/L in agar, DMSO, read-out: MIC of Clindamycine
[18] = MSSA 8237, booster 16 mg/L in agar, Tween/water, read-out: MIC of Clindamycine
[19] = read-out: MIC of Pipera tazo, MSSA 8237, booster 1 mg/L in agar, DMSO
[20] = read-out: MIC of Pipera tazo, MSSA 8237, booster 1 mg/L in agar, Tween/water
[21] = read-out: MIC of Pipera tazo, MSSA 8237, booster 4 mg/L in agar, DMSO
[22] = read-out: MIC of Pipera tazo, MSSA 8237, booster 4 mg/L in agar, Tween/water
[23] = read-out: MIC of Pipera tazo, MSSA 8237, booster 16 mg/L in agar, Tween/water

O=C(OCc1ccccc1)c1ccccc1 [BB, benzyl benzoate]
MIC [1]: > 10000 µg/mL
occurrence of mutants on addition of the compound to ciprofloxacine [2]: does not cause the occurrence of mutants any longer
MIC of Cefoxitine [3, 7]: 2 µg/mL
MIC of Meropenem [3, 7]: 0.25 µg/mL
MIC of Penicillin G [3, 7]: 0.38 µg/mL
MIC of Cefoxitine [3, 8]: 3 µg/mL
MIC of Meropenem [3, 8]: 0.19 µg/mL
MIC of Penicillin G [3, 8]: 0.25 µg/mL
MIC of Cefoxitine [3, 9]: 3 µg/mL
MIC of Meropenem [3, 9]: 0.19 µg/mL
MIC of Penicillin G [3, 9]: 0.25 µg/mL
MIC of Cefoxitine [3, 10]: 3 µg/mL
MIC of Meropenem [3, 10]: 0.125 µg/mL
MIC of Penicillin G [3, 10]: 0.19 µg/mL
MIC of Cefoxitine [3, 11]: 3 µg/mL
MIC of Meropenem [3, 11]: 0.19 µg/mL
MIC of Penicillin G [3, 11]: 0.19 µg/mL
MIC of Cefoxitine [3, 12]: 3 µg/mL
MIC of Meropenem [3, 12]: 0.064 µg/mL
MIC of Penicillin G [3, 12]: 0.125 µg/mL
MIC [3, 13]: 0.047 µg/mL
MIC [3, 14]: 0.047 µg/mL
MIC [3, 15]: 0.047 µg/mL
MIC [3, 16]: 0.047 µg/mL
MIC [3, 17]: 0.047 µg/mL
MIC [3, 18]: 0.094 µg/mL
MIC [3, 19]: 1 µg/mL
MIC [3, 20]: 1 µg/mL
MIC [3, 21]: 1 µg/mL
MIC [3, 22]: 1 µg/mL
MIC ([3]; read-out: MIC of Pipera tazo, MSSA 8237, booster 16 mg/L in agar, DMSO): 0.75 µg/mL
MIC [3, 23]: 0.75 µg/mL
MIC of Meropenem ([4]; booster 4 mg/L in agar, DMSO): 8 µg/mL
MIC of Meropenem ([4]; booster 4 mg/L in agar, Tween/water): 8 µg/mL
MIC of Meropenem ([4]; booster 16 mg/L in agar, DMSO): 2 µg/mL
MIC of Meropenem ([4]; booster 16 mg/L in agar, Tween/water): 12 µg/mL
MIC 50 ([5]; solvent DMSO): >1%
MIC 90 ([5]; solvent DMSO): >1%
MIC 50 ([5]; solvent Tween/prop glyc): >1%
MIC 90 ([5]; solvent Tween/prop glyc): >1%
MIC 50 ([5]; solvent Tween/water): >1%
MIC 90 ([5]; solvent Tween/water): >1%
MIC 50 ([5]; solvent water/water): >1%
MIC 90 ([5]; solvent water/water): >1%
MIC 50 gain ([6]; ratio 64/100): 0.13
MIC 90 gain ([6]; ratio 64/100): 0.50
MIC 50 gain ([6]; ratio 64/500): 1.00
MIC 90 gain ([6]; ratio 64/500): 1.00

CC(=O)OCC=Cc1ccccc1 [AC, cinnamyl acetate]
MIC [1]: > 10000 µg/mL
occurrence of mutants on addition of the compound to ciprofloxacine [2]: does not cause the occurrence of mutants any longer
MIC of Cefoxitine [3, 7]: 2 µg/mL
MIC of Meropenem [3, 7]: 0.25 µg/mL
MIC of Penicillin G [3, 7]: 0.25 µg/mL
MIC of Cefoxitine [3, 8]: 3 µg/mL
MIC of Meropenem [3, 8]: 0.25 µg/mL
MIC of Penicillin G [3, 8]: 0.5 µg/mL
MIC of Cefoxitine [3, 9]: 3 µg/mL
MIC of Meropenem [3, 9]: 0.19 µg/mL
MIC of Penicillin G [3, 9]: 0.19 µg/mL
MIC of Cefoxitine [3, 10]: 2 µg/mL
MIC of Meropenem [3, 10]: 0.19 µg/mL
MIC of Penicillin G [3, 10]: 0.125 µg/mL
MIC of Cefoxitine [3, 11]: <0.016 µg/mL
MIC of Meropenem [3, 11]: <0.002 µg/mL
MIC of Penicillin G [3, 11]: <0.002 µg/mL
MIC of Cefoxitine [3, 12]: 1.5 µg/mL
MIC of Meropenem [3, 12]: 0.064 µg/mL
MIC of Penicillin G [3, 12]: 0.064 µg/mL
MIC [3, 13]: 0.047 µg/mL
MIC [3, 14]: 0.047 µg/mL
MIC [3, 15]: 0.047 µg/mL
MIC [3, 16]: 0.064 µg/mL
MIC [3, 17]: < 0.016 µg/mL
MIC [3, 18]: 0.125 µg/mL
MIC [3, 19]: 0.75 µg/mL
MIC [3, 20]: 1 µg/mL
MIC [3, 21]: 0.5 µg/mL
MIC [3, 22]: 0.5 µg/mL
MIC [3, 23]: 0.38 µg/mL
MIC of Meropenem ([4]; booster 1 mg/L in agar, Tween/water): 8 µg/mL
MIC 50 ([5]; solvent DMSO): 1.00%
MIC 90 ([5]; solvent DMSO): 1.00%
MIC 50 ([5]; solvent Tween/prop glyc): >1%
MIC 90 ([5]; solvent Tween/prop glyc): >1%
MIC 50 ([5]; solvent Tween/water): >1%
MIC 90 ([5]; solvent Tween/water): >1%
MIC 50 ([5]; solvent water/water): >1%
MIC 90 ([5]; solvent water/water): >1%
MIC 50 gain ([6]; ratio 64/100): 0.05
MIC 90 gain ([6]; ratio 64/100): 0.28
MIC 50 gain ([6]; ratio 64/500): 2.00
MIC 90 gain ([6]; ratio 64/500): 1.00
